Assay results: patent US12324769B1, “Double-network versatile hydrogel with antibacterial and drug sequential release capabilities” (Eye Institute of Shandong First Medical University, priority 2023, dated 2025)

Legend:
Raw264.7 cells = assay: macrophage cytoskeleton staining after LPS/IFN-γ induced M1 polarization; format: cell-based; conditions: M1-induced Raw264.7, cytoskeleton staining
Method: The anti-inflammatory properties of SQPV hydrogel prepared in Embodiment 1, SQP hydrogel prepared in Comparative embodiment 1 and SQ hydrogel prepared in Comparative embodiment 2 are investigated. […] Therefore, regulating inflammatory response has become the key focus of developing ideal corneal substitutes. […] In this present disclosure, Raw264.7 cells are inoculated on a 6-well plate for 24 h, and then stimulated with LPS (100 nanograms per milliliter (ng/mL)) and interferon gamma (IFN-γ) (20 ng/mL) for 24 h to induce M1 polarization. Then, fresh hydrogel leaching solution is added, and after 24 h, the cytoskeleton is stained with CLSM to observe the morphological changes of macrophages.

[1] = cumulative release of PDRN and verteporfin in PBS at 37° C.; format: physicochemical; conditions: from SQPV hydrogel

Substance	macrophage polarization (Raw264.7 cells)	time until almost all encapsulated PDRN is released [1]	cumulative release of verteporfin ([1]; after 28 days of incubation)
polydeoxyribonucleotide [PDRN]	promotes macrophages to have M1 to M2 transformation	≤ 7 days	–
verteporfin [reference compound]	–	–	72%
